Source: US10450615B2, “Methods and compositions for detecting gastrointestinal and other cancers” (Case Western Reserve University, priority 2003, dated 2019)

Test system: vimentin gene expression in colon cancer cell lines
Assay: RT-PCR of vimentin expression in colon cancer cell lines after 5-azacytidine treatment
Assay type: cell-based, human
Conditions: FIG. 2, cell lines with vimentin DNA methylation, optimal tolerated doses ranging from 1 μg/ml to 3 μg/ml, reactivated in V400, V429, V503, RCA, V5, RKO, V432, V703, V457
Procedure: The cultures were grown and treated as described previously (Veigl, et al., 1998, Proc. Natl. Acad. Sci. USA, 95:8698-8702). The optimal tolerated doses were determined for each treated line, and two doses were used for some lines, ranging from 1 μg/ml to 3 μg/ml.
To establish that methylation was responsible for silencing vimentin gene expression, cell lines with vimentin DNA methylation were treated with 5-azacytidine (5-azaC), a demethylating agent.

## Nc1ncn([C@@H]2O[C@H](CO)[C@@H](O)[C@H]2O)c(=O)n1 [5-azaC, 5-azacytidine]
  colon cancer cell lines in which vimentin expression was reactivated (induced): 9 of 12
